Assay results published in patent US20060069038A1, “Irreversible caspase-3 inhibitors as active site probes” (priority 2003, published 2006).
Read-outs that look alike come from different tables or passages of the source.

Biological target: T1, caspase-3 (Rattus norvegicus, UniProt P55213)
T1 construct: endogenous in cells; host or cells: primary rat thymocytes (Sprague-Dawley), spontaneous apoptosis in culture
T1 sequence (P55213 29-175 limits assumed): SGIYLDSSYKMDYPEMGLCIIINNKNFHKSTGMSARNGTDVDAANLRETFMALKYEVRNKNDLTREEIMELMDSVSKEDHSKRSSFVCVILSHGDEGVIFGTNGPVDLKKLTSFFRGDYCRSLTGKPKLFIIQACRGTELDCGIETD
T1 sequence (P55213 176-277 limits assumed): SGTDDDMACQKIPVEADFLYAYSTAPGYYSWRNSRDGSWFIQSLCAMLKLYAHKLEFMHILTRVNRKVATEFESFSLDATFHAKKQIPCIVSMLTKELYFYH
Experiment: Caspase active site occupancy by [125I]-M808 labeling in whole rat thymocytes
Assay type: cell-based
Method: FIG. 5. Determination of caspase active site occupancy by M867 in cultured rat thymocytes. A-Theoretical calculations for the determination of the percentage of caspase-3 active sites occupied by M867 in whole cells. The total amount of caspase-3 p17 subunit is determined densitometrically by either Western blotting of saturation [^125I]-M808 labeling. Partial labeling of active caspases in whole cells is perforemd (see materials and methods). A graph of the p17 amount against partial [^125I]-M808 labeling signal in the absence of M867 (or other reversible caspase inhibitors) is plotted. The [^125I]-M808 signal expected from the measured p17 amount is estimated form this plot. The actual [^125I]-M808 signal (by partial labeling) in the presence of reversible inhibitor is measured. The ratio of actual [^125I]-M808 signal over expected [^125I]-M808 signal multiplied by 100=the percentage of caspase active sites unoccupied by an inhibitor. The percentage occupancy=100−% free active sites. B-C An actual determination of caspase active site occupancy by M867 in whole rat thymocytes. B-caspase-3 western blot. C-[^125I]-M808 signal from whole rat thymocytes exposed to increasing concentrations of M867. Comparison of M867 caspase inhibition potency (IC50) determined by DNA fragmentation inhibition and [^125I]-M808 labeling is also depicted. […]

`CCCCCN(C)CC(=O)[C@H](CC(=O)O)NC(=O)[C@H](CC)n1cc(C(C)(C)C)nc(NCc2nonc2C)c1=O` [Example M867, (3S)-3-({(2S)-2-[5-tert-butyl-3-{[(4-methyl-1,2,5-oxadiazol-3-yl)methyl]amino}-2-oxopyrazin-1(2H)-yl]butanoyl}amino)-5-[methyl(pentyl)amino]-4-oxopentanoic acid] showed an IC50 (five independent experiments, p=0.03 vs DNA fragmentation IC50, read-out: IC50 determined with M808) of 0.13 µM and an IC50 (whole rat thymocytes, experiment of FIG. 5, read-out: IC50, occupancy of caspase by M867 ([125I]-M808 labeling)) of 0.14 µM.
